Counter-ions that a name gives are not always drawn.
Key:
site of infusion [1] = experiment: Toxicology, subcutaneous infusion site reaction; type: in vivo, rabbits and minipigs
Description: Toxicology was tested on rats, rabbits and minipigs. A sterilized injectable ropinirole composition at 15 mg/mL/day was administered to the rabbits and minipigs. Injection sites were administered 1 mL of infusate per day for 3 days and tissues collected immediately after cessation of delivery. […] A slight trend towards larger reactions with higher concentrations/doses of ropinirole relative to vehicle-treated sites was found but was concluded to be much less severe than apomorphine-induced inflammation at clinically relevant doses (FIGS. 12 and 13).

site of infusion [2] = experiment: Histopathology score of site reactions in the subcutis at the cannula tip; conditions: apomorphine, microscopic
[3] = Pharmacokinetics of injectable ropinirole administered subcutaneously, steady state plasma levels; type: in vivo; conditions: rats, subcutaneous, sterilized ropinirole HCl in sterile water for injection, no excipients
[4] = as above; type: in vivo; conditions: minipigs, subcutaneous, ropinirole 15 mg/ml terminally sterilized (Table A)
site of infusion [5] = conditions: in vivo

two and three repeat administrations to the same site versus single 3-day administration (site of infusion [5]) | SMILES | size of site reaction relative to 15 mg/mL/day ropinirole (site of infusion [1]; minipig, 10 mg/3 mL/day, 3 days infusion) | inflammation score (site of infusion [2]) | necrosis score (site of infusion [2]) | steady state plasma levels versus dose [3] | steady state plasma levels versus dose [4] | inflammation/necrosis at the site of infusion (site of infusion [1]; 15 mg/mL/day, 1 mL per day for 3 days) | gross detectability of reactions at the local sites of infusion (site of infusion [1]; seen only at cannula tip in the subcutis upon microscopic evaluation)
– | CN1CCc2cccc3c2[C@H]1Cc1ccc(O)c(O)c1-3 [apomorphine] | approximately twice as large | severe | moderate | – | – | – | –
did not differ significantly | CCCN(CCC)CCc1cccc2c1CC(=O)N2 [ropinirole, 4-[2-(dipropylamino)ethyl]-1,3-dihydro-2H-indol2-one monohydrochloride] | – | – | – | approximate linear relationship to the dose administered | approximate linear relationship to the dose administered | mild inflammation/necrosis | not detectable grossly at the surface of the skin
